Results from patent US20230141603A1, “BENZODIAZEPINE DERIVATIVES AS GABA A GAMMA1 PAM” (Hoffmann-La Roche Inc., priority 2021, published 2023).

molecular target: T1, h-GABAA α1β2γ1 (Homo sapiens, UniProt P14867+Q8N1C3); test: Radioligand binding assay, [3H]RO7239181 competition, HEK293F membranes
T1 construct: expressed in transfected cells; host or cells: HEK293F cells (ThermoFisher R79007), membranes
T1 sequence (P14867 28-456): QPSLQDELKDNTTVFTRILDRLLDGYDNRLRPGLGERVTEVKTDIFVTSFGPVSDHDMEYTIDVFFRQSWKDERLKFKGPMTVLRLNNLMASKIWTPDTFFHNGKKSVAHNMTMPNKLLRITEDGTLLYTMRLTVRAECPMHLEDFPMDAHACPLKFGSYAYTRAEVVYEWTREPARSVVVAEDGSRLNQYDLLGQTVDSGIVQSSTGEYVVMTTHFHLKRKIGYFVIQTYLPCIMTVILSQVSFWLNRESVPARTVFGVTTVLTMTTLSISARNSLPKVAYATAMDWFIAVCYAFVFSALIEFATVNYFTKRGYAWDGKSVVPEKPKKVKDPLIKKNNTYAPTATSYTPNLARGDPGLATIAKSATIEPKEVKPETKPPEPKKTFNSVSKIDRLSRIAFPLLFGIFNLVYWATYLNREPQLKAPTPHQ
T1 sequence (P47870 25-512 partner limits assumed): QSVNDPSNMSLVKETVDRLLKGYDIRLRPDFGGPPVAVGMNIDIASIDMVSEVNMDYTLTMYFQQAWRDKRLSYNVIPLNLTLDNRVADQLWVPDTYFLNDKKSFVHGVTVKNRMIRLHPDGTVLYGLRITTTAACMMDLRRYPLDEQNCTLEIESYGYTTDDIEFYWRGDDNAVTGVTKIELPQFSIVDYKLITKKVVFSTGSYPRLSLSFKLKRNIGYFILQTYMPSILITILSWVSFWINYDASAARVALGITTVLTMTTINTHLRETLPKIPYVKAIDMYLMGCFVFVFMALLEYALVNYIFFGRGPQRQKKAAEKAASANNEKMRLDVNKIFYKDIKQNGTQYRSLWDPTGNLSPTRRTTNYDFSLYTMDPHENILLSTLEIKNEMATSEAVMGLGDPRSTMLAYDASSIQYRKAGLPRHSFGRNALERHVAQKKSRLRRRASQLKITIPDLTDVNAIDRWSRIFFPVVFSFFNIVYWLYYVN
T1 sequence (Q8N1C3 36-465): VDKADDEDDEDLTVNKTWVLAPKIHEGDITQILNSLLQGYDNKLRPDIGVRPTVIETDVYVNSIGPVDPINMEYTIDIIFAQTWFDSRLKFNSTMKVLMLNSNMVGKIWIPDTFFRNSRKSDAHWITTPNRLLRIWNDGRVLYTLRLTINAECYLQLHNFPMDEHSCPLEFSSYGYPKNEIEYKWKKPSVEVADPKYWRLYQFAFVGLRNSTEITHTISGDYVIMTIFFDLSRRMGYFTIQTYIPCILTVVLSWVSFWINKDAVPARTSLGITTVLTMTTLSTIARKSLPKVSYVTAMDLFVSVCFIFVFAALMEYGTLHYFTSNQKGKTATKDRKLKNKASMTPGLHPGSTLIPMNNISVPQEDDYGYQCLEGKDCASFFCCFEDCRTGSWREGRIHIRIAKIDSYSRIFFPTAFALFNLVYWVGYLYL
Protocol: The affinity of compounds at GABAA γ1 subunit-containing receptors was measured by competition for [^3H]RO7239181 (67.3 Ci/mmol; Roche) binding to membranes from HEK293F cells (ThermoFisher R79007) expressing human (transiently transfected) receptors of composition […], α2β2γ1, α1β2γ1.
Harvested pellets from HEK293F cells expressing the different GABAA receptor subtypes were resuspended in Mannitol Buffer pH 7.2-7.4 (Mannitol 0.29M, Triethylamine 10 mM, Acetic acid 10 mM, EDTA 1 mM plus protease inhibitors (20 tablets Complete, Roche Diagnostics Cat. No. 05 056 489 001 per liter)), washed two times and then resuspended at 1:10 to 1:15 dilution in the same buffer. Cell disruption was performed by stirring the suspension in a Parr vessel #4637 at 435 psi for 15 minutes, and then the suspensions were centrifuged at 1000×g for 15 minutes at 4° C. (Beckman Avanti J-HC; rotor JS-4.2). The supernatant (S1) was transferred in a 21 Schott flask and the pellet (P1) was resuspended with Mannitol Buffer up to 175 ml. The resuspended pellet was transferred into a 250 ml Corning centrifugal beaker and centrifuged at 1500×g for 10 minutes at 4° C. (Beckman Avanti J-HC; rotor JS-4.2). The supernatant (S1) was then transferred in the 21 Schott flask and the pellet was discarded. The supernatants (S1) were centrifuged in 500 ml Beckman polypropylene centrifugal beaker at 15′000×g for 30 minutes at 4° C. (Beckman Avanti J-20 XP; rotor JLA-10.500). The pellet (P2) was resuspended with Mannitol Buffer 1:1 and frozen at −80° C. The supernatant (S2) was centrifuged in 100 ml Beckman polypropylene centrifugal tubes at 48000×g for 50 minutes at 4° C. (Beckman Avanti J-20 XP; rotor JA-18). The supernatant (S3) was discarded and the pellet (P3) was resuspended with 1:1 Mannitol Buffer. The P2 and P3 protein concentration was determined with the BIORAD Standard assay method with bovine serum albumin as standard and measured on the NANO-Drop 1000. The membrane suspension was aliquots (500 μl per tube) and stored at −80° C. until required. Membrane homogenates were resuspended and polytronised (Polytron PT1200E Kinematica AG) in Potassium Phosphate 10 mM, KCl 100 mM binding buffer at pH 7.4 to a final assay concentration determined with a previous experiment.
Assays were incubated to equilibrium for 1 hour at 4° C. and then, membranes were filtered onto unifilter (96-well white microplate with bonded GF/C filters preincubated 20-50 minutes in 0.3% Polyethylenimine) with a Filtermate 196 harvester (Packard BioScience) and washed 4 times with cold Potassium Phosphate 10 mM pH 7.4, KCl 100 mM binding buffer. After drying, filter-retained radioactivity was detected by liquid scintillation counting. Ki values were calculated using Excel-Fit (Microsoft) and are the means of two determinations.

| Compound | Ki [nM] |
| --- | --- |
| Cc1nnc2n1-c1ccc(C(F)F)c(Cl)c1C(c1c(F)cccc1F)=NC2 [Example 25, 7-chloro-8-(difluoromethyl)-6-(2,6-difluorophenyl)-1-methyl-4H-[1,2,4]triazolo[4,3-a][1,4]benzodiazepine] | 68.6 |
| O=c1[nH]nc2n1-c1ccc(Br)c(Cl)c1C(c1ccccc1F)=NC2 [Example 26, 8-bromo-7-chloro-6-(2-fluorophenyl)-2,4-dihydro-[1,2,4]triazolo[4,3-a][1,4]benzodiazepin-1-one] | 24.1 |
| Fc1ccccc1C1=NCc2nnc(-c3cccnn3)n2-c2ccc(C(F)(F)F)c(Cl)c21 [Example 27, 7-chloro-6-(2-fluorophenyl)-1-pyridazin-3-yl-8-(trifluoromethyl)-4H-[1,2,4]triazolo[4,3-a][1,4]benzodiazepine] | 288 |
| Cn1cc(-c2nnc3n2-c2ccc(Cl)c(Cl)c2C(c2c(F)cccc2F)=NC3)cn1 [Example 28, 7,8-dichloro-6-(2,6-difluorophenyl)-1-(1-methylpyrazol-4-yl)-4H-[1,2,4]triazolo[4,3-a][1,4]benzodiazepine] | 12.6 |
| Fc1cccnc1C1=NCc2nncn2-c2ccc(Br)c(Cl)c21 [Example 29, 8-bromo-7-chloro-6-(3-fluoro-2-pyridyl)-4H-[1,2,4]triazolo[4,3-a][1,4]benzodiazepine] | 66.2 |
| Fc1cccc(F)c1C1=NCc2nncn2-c2ccc(I)c(Cl)c21 [Example 34, 7-chloro-6-(2,6-difluorophenyl)-8-iodo-4H-[1,2,4]triazolo[4,3-a][1,4]benzodiazepine] | 5.6 |
| Cl.NCc1nnc2n1-c1ccc(Br)c(Cl)c1C(c1c(F)cccc1F)=NC2 [Example 36, [8-bromo-7-chloro-6-(2,6-difluorophenyl)-4H-[1,2,4]triazolo[4,3-a][1,4]benzodiazepin-1-yl]methanamine hydrochloride] | 11.9 |
| Fc1cccc(F)c1C1=NCc2nnc(-c3cccnn3)n2-c2ccc(C(F)(F)F)c(Cl)c21 [Example 38, 7-chloro-6-(2,6-difluorophenyl)-1-pyridazin-3-yl-8-(trifluoromethyl)-4H-[1,2,4]triazolo[4,3-a][1,4]benzodiazepine] | 28 |
| Fc1cccc(F)c1C1=NCc2nnc(-c3cccnn3)n2-c2ccc(I)c(Cl)c21 [Example 39, 7-chloro-6-(2,6-difluorophenyl)-8-iodo-1-pyridazin-3-yl-4H-[1,2,4]triazolo[4,3-a][1,4]benzodiazepine] | 4.7 |
| Cc1nnc2n1-c1ccc(C(F)(F)F)c(Cl)c1C(c1c(F)cccc1F)=NC2 [Example 40, 7-chloro-6-(2,6-difluorophenyl)-1-methyl-8-(trifluoromethyl)-4H-[1,2,4]triazolo[4,3-a][1,4]benzodiazepine] | 20.8 |
| Cc1nnc2n1-c1ccc(I)c(Cl)c1C(c1c(F)cccc1F)=NC2 [Example 41, 7-chloro-6-(2,6-difluorophenyl)-8-iodo-1-methyl-4H-[1,2,4]triazolo[4,3-a][1,4]benzodiazepine] | 4.8 |
| Fc1cccc(F)c1C1=NCc2nnc(-c3cccnn3)n2-c2ccc(Br)c(Br)c21 [Example 42, 7,8-dibromo-6-(2,6-difluorophenyl)-1-pyridazin-3-yl-4H-[1,2,4]triazolo[4,3-a][1,4]benzodiazepine] | 7.2 |
| Fc1cccc(F)c1C1=NCc2nnc(-c3ccncn3)n2-c2ccc(Br)c(Br)c21 [Example 43, 7,8-dibromo-6-(2,6-difluorophenyl)-1-pyrimidin-4-yl-4H-[1,2,4]triazolo[4,3-a][1,4]benzodiazepine] | 8.4 |
| Clc1cccnc1C1=NCc2nnc(-c3ccncn3)n2-c2ccc(Br)c(Cl)c21 [Example 44, 8-bromo-7-chloro-6-(3-chloro-2-pyridyl)-1-pyrimidin-4-yl-4H-[1,2,4]triazolo[4,3-a][1,4]benzodiazepine] | 11.5 |
| Fc1cccnc1C1=NCc2nnc(-c3cccnn3)n2-c2ccc(Br)c(Cl)c21 [Example 45, 8-bromo-7-chloro-6-(3-fluoro-2-pyridyl)-1-pyridazin-3-yl-4H-[1,2,4]triazolo[4,3-a][1,4]benzodiazepine] | 54.4 |
| Fc1cccnc1C1=NCc2nnc(-c3ccncn3)n2-c2ccc(Br)c(Cl)c21 [Example 46, 8-bromo-7-chloro-6-(3-fluoro-2-pyridyl)-1-pyrimidin-4-yl-4H-[1,2,4]triazolo[4,3-a][1,4]benzodiazepine] | 60.5 |
| Clc1cccnc1C1=NCc2nnc(-c3cccnn3)n2-c2ccc(Br)c(Cl)c21 [Example 47, 8-bromo-7-chloro-6-(3-chloro-2-pyridyl)-1-pyridazin-3-yl-4H-[1,2,4]triazolo[4,3-a][1,4]benzodiazepine] | 7 |
| Cc1ccc2c(c1Cl)C(c1c(F)cccc1F)=NCc1nnc(-c3cccnn3)n1-2 [Example 48, 7-chloro-6-(2,6-difluorophenyl)-8-methyl-1-pyridazin-3-yl-4H-[1,2,4]triazolo[4,3-a][1,4]benzodiazepine] | 20.8 |
| Cc1ccc2c(c1Cl)C(c1c(F)cccc1F)=NCc1nnc(-c3ccncn3)n1-2 [Example 49, 7-chloro-6-(2,6-difluorophenyl)-8-methyl-1-pyrimidin-4-yl-4H-[1,2,4]triazolo[4,3-a][1,4]benzodiazepine] | 40.5 |
| Cc1nnc2n1-c1ccc(Br)c(Cl)c1C(c1c(F)cccc1Cl)=NC2 [Example 50, 8-bromo-7-chloro-6-(2-chloro-6-fluoro-phenyl)-1-methyl-4H-[1,2,4]triazolo[4,3-a][1,4]benzodiazepine] | 8.9 |
| Fc1cccnc1C1=NCc2nnc(-c3cccnn3)n2-c2ccc(Cl)c(Cl)c21 [Example 54, 7,8-dichloro-6-(3-fluoro-2-pyridyl)-1-pyridazin-3-yl-4H-[1,2,4]triazolo[4,3-a][1,4]benzodiazepine] | 121 |
| Fc1cccnc1C1=NCc2nnc(-c3ccncn3)n2-c2ccc(Cl)c(Cl)c21 [Example 55, 7,8-dichloro-6-(3-fluoro-2-pyridyl)-1-pyrimidin-4-yl-4H-[1,2,4]triazolo[4,3-a][1,4]benzodiazepine] | 133 |
| COc1ccc2c(c1Cl)C(c1c(F)cccc1F)=NCc1nnc(-c3cccnn3)n1-2 [Example 57, 7-chloro-6-(2,6-difluorophenyl)-8-methoxy-1-pyridazin-3-yl-4H-[1,2,4]triazolo[4,3-a][1,4]benzodiazepine] | 170 |
